In US9765294B2 (priority 2013, dated 2017):
Where two headings read alike, the source gives them in different places.

Columns and labels:
B. pertussis [1] = assay type: cell-based, Bordetella pertussis; conditions: for Growth: 53 h; for Biomass yield after 53 h: sole sulfur source, 35° C.; for Support of growth as the sole source of sulfur: medium containing no other S source
B. pertussis [2] = experiment: Growth in minimal media containing only one amino acid, shake-flasks; assay type: cell-based, Bordetella pertussis; conditions: L-cysteine 125 mM as single amino acid, no thiosulfate added
Method: Assays were performed in order to determine whether growth of B. pertussis is possible in minimal media containing a single amino acid as the sole source of carbon and nitrogen. A shake-flask containing 7.5 ml fresh medium (B-CDM containing 0.604 g/L niacin) was inoculated with 10^9 B. pertussis CFUs and incubated at 35° C. (+/−1° C.) and 150 rpm for 24 h (+/−5 h). Cells were harvested by centrifugation, washed twice with NaCl 0.9% (w/v), and resuspended in fresh medium (see composition in Table 12) at a theoretical OD650 nm of 0.5, as calculated from the OD650 nm of the culture before harvest. 1 ml of this cell suspension was used to inoculate shake-flasks containing 30 ml of the medium in Table 12, supplemented with a single amino acid (L-cysteine 125 mM, L-proline 125 mM, L-glutamate 125 mM, L-glutamine 125 mM, L-aspartate 30 mM, L-asparagine 125 mM, L-serine 125 mM, or L-alanine 125 mM) as a source of C and N, and thiosulfate 0.25 mM as a source of S (except for L-Cys supplementation, where no thiosulfate was added). The same medium with ammonium chloride (25 mM) and thiosulfate (0.25 mM), but no amino acid, was used as a negative control. The shake flasks were then incubated for approximately 10 days at 35° C. under constant shaking (150 rpm). Growth was monitored as OD650 nm.

B. pertussis [3] = assay type: cell-based, Bordetella pertussis
Bordetella pertussis = assay type: cell-based
[4] = buffer 2.5 g/L, relative to Tris control
[5] = buffer 5.0 g/L, relative to Tris control
[6] = buffer 10.0 g/L, relative to Tris control
[7] = buffer 20.0 g/L, relative to Tris control
[8] = buffer 6.1 g/L, control conditions

O=S(=O)([O-])[O-].[Na+].[Na+] [disodium sulfate] was tested, and the Growth (B. pertussis [1]; 12 mM in medium) was “−”, the “Biomass yield after 53 h” value (B. pertussis [1]; 12 mM in medium) was 0.015 OD650nm and the “Support of growth as the sole source of sulfur” value (“Support of growth … of sulfur” below) (B. pertussis [1]) was “not able to support growth”.
For O=S(O)(O)=S [disodium thiosulfate], the Growth (B. pertussis [1]; 1 mM in medium) was “+”, the “Biomass yield after 53 h” value (B. pertussis [1]; 1 mM in medium) was 0.227 OD650nm and the Growth (B. pertussis [1]; 12 mM in medium) was “+”. The “Biomass yield after 53 h” value (B. pertussis [1]; 12 mM in medium) was 0.472 OD650nm and the “Support of growth … of sulfur” value (B. pertussis [1]) was “growth was observed”.
In the case of O=S([O-])[O-].[Na+].[Na+] [disodium sulfite], the Growth (B. pertussis [1]; 1 mM in medium) is reported as “−”, the “Biomass yield after 53 h” value (B. pertussis [1]; 1 mM in medium) is reported as 0.011 OD650nm and the “Biomass yield after 53 h” value (B. pertussis [1]; 12 mM in medium) is reported as 0.007 OD650nm. The “Support of growth … of sulfur” value (B. pertussis [1]) was “not able to support growth”.
In the case of N[C@@H](CS)C(=O)O [L-cysteine], the Growth (B. pertussis [1]; 27 mM in medium) is reported as “+”, the “Biomass yield after 53 h” value (B. pertussis [1]; 27 mM in medium) is reported as 0.512 OD650nm and the “Need for an additional source of sulfur” value (B. pertussis [2]) is reported as “no additional source of sulfur was required”.
For O=S(=O)(O)CCCN1CCOCC1 [MOPS, 3-(N-morpholino)propanesulfonic acid], the “Support of growth as buffer in B-CDM” value (B. pertussis [3]) was “able to support growth”, the “Relative biomass yield after 24 h” value (B. pertussis [3]; [4]) was 114% and the “Relative biomass yield after 48 h” value (B. pertussis [3]; [4]) was 91%. For the same molecule, the “Relative biomass yield after 24 h” value (B. pertussis [3]; [5]) was 85%, the “Relative biomass yield after 48 h” value (B. pertussis [3]; [5]) was 88% and the “Relative biomass yield after 24 h” value (B. pertussis [3]; [6]) was 111%. The “Relative biomass yield after 48 h” value (B. pertussis [3]; [6]) was 84%, the “Relative biomass yield after 24 h” value (B. pertussis [3]; [7]) was 81% and the “Relative biomass yield after 48 h” value (B. pertussis [3]; [7]) was 76%.
tris(hydroxymethyl)aminomethane was tested, and the “Relative biomass yield after 24 h” value (B. pertussis [3]; [8]) was 100% and the “Relative biomass yield after 48 h” value (B. pertussis [3]; [8]) was 100%.
For [Cl][Cu][Cl] [CuCl2], the Biomass yield (Bordetella pertussis) was “significant increase”.
For O=P(O)(O)OC(CO)CO [β-glycerophosphate], the “Support of growth as buffer in B-CDM” value (B. pertussis [3]) was “able to support growth”, the “Relative biomass yield after 24 h” value (B. pertussis [3]; [4]) was 88% and the “Relative biomass yield after 48 h” value (B. pertussis [3]; [4]) was 79%. The “Relative biomass yield after 24 h” value (B. pertussis [3]; [5]) was 89%, the “Relative biomass yield after 48 h” value (B. pertussis [3]; [5]) was 67% and the “Relative biomass yield after 24 h” value (B. pertussis [3]; [6]) was 68%. The “Relative biomass yield after 48 h” value (B. pertussis [3]; [6]) was 59%, the “Relative biomass yield after 24 h” value (B. pertussis [3]; [7]) was 46% and the “Relative biomass yield after 48 h” value (B. pertussis [3]; [7]) was 45%.
